These results are taken from patent US20160212997A1, “AGRICULTURAL CHEMICALS” (REDAG CROP PROTECTION LTD, priority 2013, published 2016).

Experiment [1] has as its system aphids, Myzus persicae. In words: Potter tower spray on aphids, knockdown and mortality. As to conditions: for pest or weed control at 0.000125 % strength / pest or weed control at 0.00025 % strength / pest or weed control at 0.0005 % strength / pest or weed control at 0.001 % strength / pest or weed control at 0.002 % strength / pest or weed control at 0.003125 % strength / pest or weed control at 0.00625 % strength / pest or weed control at 0.0125 % strength / pest or weed control at 0.025 % strength / pest or weed control at 0.05 % strength: Myzus persicae, read-out: Average of % corrected affected; for pest or weed control at 0.003125 % strength / pest or weed control at 0.00625 % strength / pest or weed control at 0.0125 % strength / pest or weed control at 0.025 % strength / pest or weed control at 0.05 % strength: Aphids; for pest or weed control at 0.003125 % strength: 0.003125 % w/v; for pest or weed control at 0.00625 % strength: 0.00625 % w/v; for pest or weed control at 0.0125 % strength: 0.0125 % w/v; for pest or weed control at 0.025 % strength: 0.025 % w/v; for pest or weed control at 0.05 % strength: 0.05 % w/v. It is filed as in vivo. The text has this: The compounds were screened for insecticidal efficacy against aphids, Myzus persicae, Cabbage moth, Mamestra brassicae, diamond black moths, Plutella xylostella, red spider mites, Tetranychus urticae, whitefly, Trialeurodes vaporariorum, in terms of knockdown and mortality.
(§1) Myzus persicae, Cabbage moth, Mamestra brassicae, diamond back moths, Plutella xylostella, red spider mites, Tetranychus urticae, whitefly, Trialeurodes vaporariorum, were obtained from specified laboratory cultures. Mixed sex and age aphids and mites, moth larvae and whitefly scale infested leaves were used in the experiments. Environmental conditions were closely monitored and recorded and were within the optimal range of the target species.
(§2) The compounds were screened at a range of five concentrations, diluted in DMSO. Some of the compounds were screened against aphids, whitefly and red spider mites and other compounds were screened against cabbage moth, and diamond black moths. A carrier only and an untreated control will also be conducted. Treatments were applied directly onto the insects within Petri dishes, using a potter tower.
(§3) Twenty mites and ten aphids, scales and moth larvae were placed within a Petri dish, lined with a suitable leaf disc on a damp cotton wool pad. Scales were already on leaves. The Petri dishes were then sprayed using a potter tower. The number of knocked down and anthropods were assessed at 24 and 48 hours post treatment. Five replicates were be performed for each treatment, for each species.
(§4) For Tables 2, 4, 5 and 6, the compounds were diluted in DMSO containing 1% v/v Tween 20™. For Tables 2, 4, 5 and 6, the caterpillars were a mixture of Mamestra brassicae and Lacanobia oleracea.

For experiment [2], the system named is caterpillars, a mixture of Mamestra brassicae and Lacanobia oleracea. Description: Potter tower spray on caterpillars, knockdown and mortality. As to conditions: for pest or weed control at 0.000125 % strength / pest or weed control at 0.00025 % strength / pest or weed control at 0.0005 % strength / pest or weed control at 0.001 % strength / pest or weed control at 0.002 % strength / pest or weed control at 0.003125 % strength / pest or weed control at 0.00625 % strength / pest or weed control at 0.0125 % strength / pest or weed control at 0.025 % strength / pest or weed control at 0.05 % strength: read-out: Average of % corrected affected; for pest or weed control at 0.003125 % strength / pest or weed control at 0.00625 % strength / pest or weed control at 0.0125 % strength / pest or weed control at 0.025 % strength / pest or weed control at 0.05 % strength: Caterpillars; for pest or weed control at 0.003125 % strength: 0.003125 % w/v; for pest or weed control at 0.00625 % strength: 0.00625 % w/v; for pest or weed control at 0.0125 % strength: 0.0125 % w/v; for pest or weed control at 0.025 % strength: 0.025 % w/v; for pest or weed control at 0.05 % strength: 0.05 % w/v. The format is in vivo.
Source text: as §1, §2, §3, §4

Setting [3] is: 24 h, 24 hours post application.
[4] abbreviates: 48 h, 48 hours post application.

Where two headings read alike, the source gives them in different places.

Regarding `O=C(CSc1ccc(C2=NOC(c3cc(Cl)cc(Cl)c3)(C(F)(F)F)C2)s1)NCC(F)(F)F` (stereo not shown) [Compound 19, 2-[[5-[5-(3,5-dichlorophenyl)-5-(trifluoromethyl)-4H-isoxazol-3-yl]-2-thienyl]sulfanyl]-N-(2,2,2-trifluoroethyl)acetamide], in experiment [1] (24 h), the pest or weed control at 0.000125 % strength was 20 to 39%, the pest or weed control at 0.00025 % strength was 1 to 19%, the pest or weed control at 0.0005 % strength lay within 1 to 19% and the pest or weed control at 0.001 % strength was 20 to 39%. Also, in experiment [1] (24 h), the pest or weed control at 0.002 % strength lay within 1 to 19%. For the same molecule, in experiment [1] (48 h), the pest or weed control at 0.000125 % strength lay in the range of 40 to 59%, the pest or weed control at 0.00025 % strength was 20 to 39%, the pest or weed control at 0.0005 % strength fell in the range of 20 to 39% and the pest or weed control at 0.001 % strength is 40 to 59%. The pest or weed control at 0.002 % strength in experiment [1] (48 h) lay within 1 to 19%. Further, in experiment [2] (24 h), the pest or weed control at 0.000125 % strength is 0%, the pest or weed control at 0.00025 % strength turned out to be 0%, the pest or weed control at 0.0005 % strength was in the range of 1 to 19% and the pest or weed control at 0.001 % strength is 1 to 19%. In experiment [2] (24 h), the pest or weed control at 0.002 % strength lay in the range of 1 to 19%. Moreover, in experiment [2] (48 h), the pest or weed control at 0.000125 % strength was in the range of 1 to 19%, the pest or weed control at 0.00025 % strength fell in the range of 1 to 19%, the pest or weed control at 0.0005 % strength lay in the range of 1 to 19% and the pest or weed control at 0.001 % strength is 1 to 19%. Besides, the pest or weed control at 0.002 % strength in experiment [2] (48 h) lay within 1 to 19%.

As to `Cc1cc(C2=NOC(c3cc(Cl)cc(Cl)c3)(C(F)(F)F)C2)sc1SCC(=O)NCC(F)(F)F` (stereo not shown) [Compound 20, 2-[[5-[5-(3,5-dichlorophenyl)-5-(trifluoromethyl)-4H-isoxazol-3-yl]-3-methyl-2-thienyl]sulfanyl]-N-(2,2,2-trifluoroethyl)acetamide], the “control over aphids compared with reference compound 15” value in experiment [1] (0.002% concentration) was “more control”. In addition, in experiment [1] (24 h), the pest or weed control at 0.000125 % strength was 1 to 19%, the pest or weed control at 0.00025 % strength was 1 to 19%, the pest or weed control at 0.0005 % strength fell in the range of 1 to 19% and the pest or weed control at 0.001 % strength was in the range of 1 to 19%. For the same molecule, the pest or weed control at 0.002 % strength in experiment [1] (24 h) was in the range of 1 to 19%. Further, in experiment [1] (48 h), the pest or weed control at 0.000125 % strength is 1 to 19%, the pest or weed control at 0.00025 % strength lay in the range of 1 to 19%, the pest or weed control at 0.0005 % strength was 1 to 19% and the pest or weed control at 0.001 % strength is 1 to 19%. In addition, the pest or weed control at 0.002 % strength in experiment [1] (48 h) fell in the range of 20 to 39%. The “control over caterpillars compared with reference compound 15” value in experiment [2] (0.002% concentration) is “more control”. In addition, in experiment [2] (24 h), the pest or weed control at 0.000125 % strength lay in the range of 1 to 19%, the pest or weed control at 0.00025 % strength fell in the range of 1 to 19%, the pest or weed control at 0.0005 % strength was in the range of 1 to 19% and the pest or weed control at 0.001 % strength was in the range of 1 to 19%. In addition, the pest or weed control at 0.002 % strength in experiment [2] (24 h) fell in the range of 20 to 39%. For the same molecule, in experiment [2] (48 h), the pest or weed control at 0.000125 % strength lay in the range of 1 to 19%, the pest or weed control at 0.00025 % strength was 1 to 19%, the pest or weed control at 0.0005 % strength was in the range of 1 to 19% and the pest or weed control at 0.001 % strength lay in the range of 1 to 19%. For the same molecule, the pest or weed control at 0.002 % strength in experiment [2] (48 h) lay within 20 to 39%.

Regarding `Cc1cc(C2=NOC(c3cc(Cl)cc(Cl)c3)(C(F)(F)F)C2)ccc1SC1CCNC1=O` (stereo not shown) [Compound 21, 3-[4-[5-(3,5-dichlorophenyl)-5-(trifluoromethyl)-4H-isoxazol-3-yl]-2-methyl-phenyl]sulfanylpyrrolidin-2-one], in experiment [1] (24 h), the pest or weed control at 0.000125 % strength lay within 20 to 39%, the pest or weed control at 0.00025 % strength is 1 to 19%, the pest or weed control at 0.0005 % strength is 1 to 19% and the pest or weed control at 0.001 % strength lay within 1 to 19%. Besides, the pest or weed control at 0.002 % strength in experiment [1] (24 h) fell in the range of 1 to 19%. Further, in experiment [1] (48 h), the pest or weed control at 0.000125 % strength was 20 to 39%, the pest or weed control at 0.00025 % strength lay within 1 to 19%, the pest or weed control at 0.0005 % strength lay within 1 to 19% and the pest or weed control at 0.001 % strength lay within 1 to 19%. In experiment [1] (48 h), the pest or weed control at 0.002 % strength lay within 20 to 39%. In addition, in experiment [2] (24 h), the pest or weed control at 0.000125 % strength was in the range of 1 to 19%, the pest or weed control at 0.00025 % strength is 1 to 19%, the pest or weed control at 0.0005 % strength was 0% and the pest or weed control at 0.001 % strength lay in the range of 1 to 19%. The pest or weed control at 0.002 % strength in experiment [2] (24 h) was 1 to 19%. Besides, in experiment [2] (48 h), the pest or weed control at 0.000125 % strength lay within 1 to 19%, the pest or weed control at 0.00025 % strength was in the range of 1 to 19%, the pest or weed control at 0.0005 % strength lay in the range of 1 to 19% and the pest or weed control at 0.001 % strength lay within 1 to 19%. In experiment [2] (48 h), the pest or weed control at 0.002 % strength is 1 to 19%.

Turning to `O=C(Nc1ccc(-c2cccnc2)oc1=O)C1CC1` [Compound 25, N-[2-Oxo-6-(3-pyridyl)pyran-3-yl]cyclopropanecarboxamide, reference compound], in experiment [1] (setting [3]), the pest or weed control at 0.003125 % strength was in the range of 1 to 19%, the pest or weed control at 0.00625 % strength lay within 20 to 39%, the pest or weed control at 0.0125 % strength lay in the range of 20 to 39% and the pest or weed control at 0.025 % strength lay in the range of 40 to 59%. In experiment [1] (setting [3]), the pest or weed control at 0.05 % strength was 1 to 19%. In addition, in experiment [1] (setting [4]), the pest or weed control at 0.003125 % strength was in the range of 1 to 19%, the pest or weed control at 0.00625 % strength lay within 20 to 39%, the pest or weed control at 0.0125 % strength fell in the range of 20 to 39% and the pest or weed control at 0.025 % strength is 60 to 79%. In experiment [1] (setting [4]), the pest or weed control at 0.05 % strength fell in the range of 40 to 59%. Further, in experiment [2] (setting [3]), the pest or weed control at 0.003125 % strength was found to be 0%, the pest or weed control at 0.00625 % strength lay in the range of 1 to 19%, the pest or weed control at 0.0125 % strength was in the range of 1 to 19% and the pest or weed control at 0.025 % strength fell in the range of 1 to 19%. For the same molecule, the pest or weed control at 0.05 % strength in experiment [2] (setting [3]) was 1 to 19%. Also, in experiment [2] (setting [4]), the pest or weed control at 0.003125 % strength lay within 1 to 19%, the pest or weed control at 0.00625 % strength fell in the range of 1 to 19%, the pest or weed control at 0.0125 % strength was in the range of 1 to 19% and the pest or weed control at 0.025 % strength fell in the range of 20 to 39%. Also, in experiment [2] (setting [4]), the pest or weed control at 0.05 % strength lay in the range of 1 to 19%.
